From patent US7265120B2, “Pyrazine derivatives and pharmaceutical use thereof” (Astellas Pharma Inc., priority 2004, dated 2007)

melting point	SMILES
229 to 231 °C	Cn1nc(-c2nc(Oc3ccc(F)cc3)c(N)nc2-c2ccccc2)ccc1=O [Example 186, 6-[5-amino-6-(4-fluorophenoxy)-3-phenyl-2-pyrazinyl]-2-methyl-3(2H)-pyridazinone]
253 to 255 °C	CCCCNc1nc(-c2ccc(=O)n(C)n2)c(-c2ccccc2)nc1N [Example 100, 6-[5-amino-6-(butylamino)-3-phenyl-2-pyrazinyl]-2-methyl-3(2H)-pyridazinone]
150 to 152 °C	CN(C)c1nc(-c2ccc(=O)n(C)n2)c(-c2ccccc2)nc1N [Example 144, 6-[5-amino-6-(dimethylamino)-3-phenyl-2-pyrazinyl]-2-methyl-3(2H)-pyridazinone]
210 to 212 °C	Cn1nc(-c2nc(N(CCO)Cc3ccccc3)c(N)nc2-c2ccccc2)ccc1=O [Example 143, 6-{5-amino-6-[benzyl(2-hydroxyethyl)amino]-3-phenyl-2-pyrazinyl}-2-methyl-3(2H)-pyridazinone]
161 to 163 °C	CC(C)n1nc(-c2nc(OC3CCCCC3)c(N)nc2-c2ccccc2)ccc1=O [Example 161, 6-[5-amino-6-(cyclohexyloxy)-3-phenyl-2-pyrazinyl]-2-isopropyl-3(2H)-pyridazinone]
172 to 174 °C	CC(C)n1nc(-c2nc(OCc3ccco3)c(N)nc2-c2ccccc2)ccc1=O [Example 164, 6-[5-amino-6-(2-furylmethoxy)-3-phenyl-2-pyrazinyl]-2-isopropyl-3(2H)-pyridazinone]
197 to 199 °C	CC(C)n1nc(-c2nc(C#N)c(N=CN(C)C)nc2-c2ccccc2Br)ccc1=O [Example 188, N′-[6-(2-bromophenyl)-3-cyano-5-(1-isopropyl-6-oxo-1,6-dihydro-3-pyridazinyl)-2-pyrazinyl]-N,N-dimethylimidoformamide]
230 to 232.5 °C	CC(C)n1nc(-c2nc(NCCN3CCOCC3)c(N)nc2-c2ccccc2)ccc1=O [Example 104, 6-(5-amino-6-{[2-(4-morpholinyl)ethyl]amino}-3-phenyl-2-pyrazinyl)-2-isopropyl-3(2H)-pyridazinone]
188.5 to 191.5 °C	COc1ccc(CNc2nc(-c3ccc(=O)n(C(C)C)n3)c(-c3ccccc3)nc2N)cc1 [Example 97, 6-{5-amino-6-[(4-methoxybenzyl)amino]-3-phenyl-2-pyrazinyl}-2-isopropyl-3(2H)-pyridazinone]
> 250 °C	COc1ccc(CNc2nc(-c3ccc(=O)n(C)n3)c(-c3ccccc3)nc2N)cc1 [Example 145, 6-[5-amino-6-[(4-methoxybenzyl)amino]-3-phenyl-2-pyrazinyl}-2-methyl-3(2H)-pyridazinone]
210 to 212 °C	CC(C)n1nc(-c2nc(-n3cccn3)c(N)nc2-c2ccccc2)ccc1=O [Example 149, 6-[5-amino-3-phenyl-6-(1H-pyrazol-1-yl)-2-pyrazinyl]-2-isopropyl-3(2H)-pyridazinone]
220 to 222 °C	CC(C)n1nc(-c2nc(N3CCC(NS(C)(=O)=O)CC3)c(N)nc2-c2ccccc2)ccc1=O [Example 111, N-{1-[3-amino-6-(1-isopropyl-6-oxo-1,6-dihydro-3-pyridazinyl)-5-phenyl-2-pyrazinyl]-4-piperidinyl}methanesulfonamide]
> 250 °C	Cn1nc(-c2nc(NCc3ccccc3)c(N)nc2-c2ccccc2)ccc1=O [Example 144, 6-[5-amino-6-(benzylamino)-3-phenyl-2-pyrazinyl]-2-methyl-3(2H)-pyridazinone]

The remaining lines, values behind:

SMILES	melting point
Cn1nc(-c2nc(-c3ccco3)c(N)nc2-c2ccccc2)ccc1=O [Example 89, 6-[5-amino-6-(2-furyl)-3-phenyl-2-pyrazinyl]-2-methyl-3(2H)-pyridazinone]	186 to 188 °C
CC(C)n1nc(-c2nc(OCCCCOCc3ccccc3)c(N)nc2-c2ccccc2)ccc1=O [Example 169, 6-{5-amino-6-[4-(benzyloxy)butoxy]-3-phenyl-2-pyrazinyl}-2-isopropyl-3(2H)-pyridazinone]	96.5 to 97.5 °C
COc1ccc(CNc2cnc(-c3ccc(=O)n(C(C)C)n3)c(-c3ccccc3)n2)cc1 [Example 49, 2-isopropyl-6-{5-[(4-methoxybenzyl)amino]-3-phenyl-2-pyrazinyl}-3(2H)-pyridazinone]	138 to 140 °C
CC(C)n1nc(-c2nc(-c3ccncc3)c(N)nc2-c2ccccc2)ccc1=O [Example 82, 6-[5-amino-3-phenyl-6-(4-pyridyl)-2-pyrazinyl]-2-isopropyl-3(2H)-pyridazinone]	222 to 224 °C
CCCCOc1nc(-c2ccc(=O)n(C(C)C)n2)c(-c2ccccc2)nc1N [Example 165, 6-(5-amino-6-butoxy-3-phenyl-2-pyrazinyl)-2-isopropyl-3(2H)-pyridazinone]	130 to 131.5 °C
CC(=O)c1nc(-c2ccc(=O)n(C(C)C)n2)c(-c2ccccc2)nc1N [Example 94, 6-(6-acetyl-5-amino-3-phenyl-2-pyrazinyl)-2-isopropyl-3(2H)-pyridazinone]	234 to 236.5 °C
CC(C)n1nc(-c2nc(C#N)c(C#N)nc2-c2ccccc2)ccc1=O [Example 4, 5-(1-isopropyl-6-oxo-1,6-dihydro-3-pyridazinyl)-6-phenyl-2,3-pyrazinedicarbonitrile]	201 to 202 °C
CC(C)n1nc(-c2ncc(N)nc2-c2ccccc2)ccc1=O [Example 9, 6-(5-amino-3-phenyl-2-pyrazinyl)-2-isopropyl-3(2H)-pyridazinone]	204 to 206 °C
COc1ccc(CNc2nc(-c3ccccc3)c(-c3ccc(=O)n(C(C)C)n3)nc2C(=O)O)cc1 [Example 46, 6-(1-isopropyl-6-oxo-1,6-dihydro-3-pyridazinyl)-3-[(4-methoxybenzyl)amino]-5-phenyl-2-pyrazinecarboxylic acid]	216.5 to 217 °C
COc1ccc(CN(Cc2ccc(OC)cc2)c2nc(-c3ccccc3)c(-c3ccc(=O)n(C(C)C)n3)nc2C(N)=O)cc1 [Example 52, 3-[bis(4-methoxybenzyl)amino]-6-(1-isopropyl-6-oxo-1,6-dihydro-3-pyridazinyl)-5-phenyl-2-pyrazinecarboxamide]	120 to 122.5 °C
CC(C)n1nc(-c2nc(N(C)C)c(N)nc2-c2ccccc2)ccc1=O [Example 96, 6-[5-amino-6-(dimethylamino)-3-phenyl-2-pyrazinyl]-2-isopropyl-3(2H)-pyridazinone]	174 to 176 °C
COCOCC#Cc1nc(-c2ccc(=O)n(C(C)C)n2)c(-c2ccccc2)nc1N [Example 71, 6-{5-amino-6-[3-(methoxymethoxy)-1-propyn-1-yl]-3-phenyl-2-pyrazinyl}-2-isopropyl-3(2H)-pyridazinone]	133 to 135 °C
CC(C)n1nc(-c2nc(/C=C/c3ccccc3)c(N)nc2-c2ccccc2)ccc1=O [Example 87, 6-{5-amino-3-phenyl-6-[(E)-2-phenylvinyl]-2-pyrazinyl}-2-isopropyl-3(2H)-pyridazinone]	244.5 to 245 °C
CSc1nc(-c2ccc(=O)n(C)n2)c(-c2ccccc2)nc1N [Example 61, 6-[5-amino-6-(methylthio)-3-phenyl-2-pyrazinyl]-2-methyl-3(2H)-pyridazinone]	204 to 205.5 °C
